The term IC50 denotes the concentration that inhibits the measured activity by half. As usually defined, the AC50 is the concentration giving half of the maximal activity seen.

The subject of one test is HTT mRNA. The experiment in a line: RT-qPCR splicing assay, HTT canonical (CJ) and alternative (AJ) junction mRNA. In kind it is cell-based. As to conditions: Homo sapiens; for IC50: read-out: HTT CJ IC50; for AC50: read-out: HTT AJ AC50. Summed up:
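Splice-junction mRNAs (CJ, AJ) measured by TaqMan one-step RT-qPCR on cell lysates, using PPIA as reference for adherent A673 and GAPDH or GUSB for K562. Cells exposed for 24 h to 11 threefold concentrations up to 10 uM final, with DMSO at or below 0.25%.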
(In qPCR the cycle at which signal appears reflects the starting amount.)

A further test has as its system Target C. The experiment in a line: RT-qPCR splicing assay, gene panel, Target C canonical junction (CJ) mRNA. In kind it is cell-based. As to conditions: Homo sapiens, read-out: Target C CJ IC50. The method, boiled down: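 A673 (DMEM/10% FBS) or K562 (IMDM/10% FBS) cells were treated 24 h at 37 °C with an 11-point 3-fold dilution series, top final 10 uM, DMSO ≤0.25%. Lysates underwent one-step RT-qPCR for the canonical-junction isoform with GAPDH, GUSB or PPIA as housekeeper. ΔΔCt versus DMSO was converted to RQ (2^−ΔΔCt), then to percent response.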

[1] abbreviates: decrease in CJ mRNA levels, larger panel of genes, Table 3.
[2] abbreviates: decrease in canonical junction mRNA, A673 or K562 cells, 24 hours treatment, Table 2.
The mark [3] stands for this setting: increase in alternative junction mRNA, A673 or K562 cells, 24 hours treatment, Table 2.

Counter-ions that a name gives are not always drawn. Like-named read-outs stand apart in the source and are kept apart here.

For `Cc1c(O)c(-c2cc(F)c3nn(C4CCNCC4)cc3c2)cc2cn(C)nc12` [Compound 126, 5-[7-fluoro-2-(4-piperidyl)indazol-5-yl]-2,7-dimethyl-indazol-6-ol], the half-inhibitory concentration (IC50) with HTT mRNA (setting [1]), with HTT mRNA (setting [2]) and in the test on Target C (setting [1]) was 1 to 10 µM each time. Moreover, the AC50 with HTT mRNA (setting [3]) is more than 10 µM.

On to `Cc1cn2nc(-n3cc4cc(C5CCNCC5)cc(F)c4n3)cc(C)c2n1` [Compound 120, 6-[7-fluoro-5-(4-piperidyl)indazol-2-yl]-2,8-dimethyl-imidazo[1,2-b]pyridazine], for which the 50% inhibitory concentration (IC50) is 1 to 10 µM with HTT mRNA (setting [1]), 1 to 10 µM with HTT mRNA (setting [2]) and more than 10 µM in the test on Target C (setting [1]). Besides, the AC50 in the test with HTT mRNA (setting [3]) is more than 10 µM.

`Cc1cn2nc(-c3cc(F)c4nn(CC5CCNCC5)cc4c3)cc(C)c2n1` [Compound 212, 6-[7-fluoro-2-(4-piperidylmethyl)indazol-5-yl]-2,8-dimethyl-imidazo[1,2-b]pyridazine]: the half-inhibitory concentration (IC50) was less than 0.1 µM in the test on HTT mRNA (setting [1]), less than 0.1 µM in the test on HTT mRNA (setting [2]) and 0.1 to 1 µM with Target C (setting [1]). Besides, the AC50 in the test on HTT mRNA (setting [3]) is less than 0.1 µM.

As to `Cc1cn2nc(-c3ccc4nn(C5CCNCC5)cc4c3)cc(C)c2n1` [Compound 192, 2,8-dimethyl-6-[2-(4-piperidyl)indazol-5-yl]imidazo[1,2-b]pyridazine], the 50% inhibitory concentration (IC50) in the test with HTT mRNA (setting [1]) was less than 0.1 µM; with HTT mRNA (setting [2]), less than 0.1 µM; in the test on Target C (setting [1]), 0.1 to 1 µM. Also, the AC50 with HTT mRNA (setting [3]) lay in the range of 0.1 to 1 µM.

Turning to `Cc1nc2c(C)c(O)c(-c3cc(F)c4nn(C5CCNCC5)cc4c3)cc2o1` [Compound 123, 6-[7-fluoro-2-(4-piperidyl)indazol-5-yl]-2,4-dimethyl-1,3-benzoxazol-5-ol], the IC50 with HTT mRNA (setting [1]) lay in the range of 0.1 to 1 µM; in the test with HTT mRNA (setting [2]), 0.1 to 1 µM; in the test on Target C (setting [1]), 1 to 10 µM. Besides, the AC50 in the test on HTT mRNA (setting [3]) was 0.1 to 1 µM.

As for `Cc1cn2cc(-c3cc(F)c4nn(C5CCNCC5)cc4c3)cc(F)c2n1` [Compound 129, 7-fluoro-5-(8-fluoro-2-methylimidazo[1,2-a]pyridin-6-yl)-2-(piperidin-4-yl)-2H-indazole], the IC50 in the test with HTT mRNA (setting [1]) is less than 0.1 µM; with HTT mRNA (setting [2]), less than 0.1 µM; with Target C (setting [1]) it was 0.1 to 1 µM. Moreover, in the test with HTT mRNA (setting [3]), the AC50 is less than 0.1 µM.

Regarding `Cc1cn2nc(-c3cc(F)c4nn([C@H]5CCNC6(CC6)C5)cc4c3)cc(C)c2n1` [Compound 172], the half-inhibitory concentration (IC50) in the test on HTT mRNA (setting [1]), in the test on HTT mRNA (setting [2]) and in the test on Target C (setting [1]) was less than 0.1 µM each time. For the same molecule, the AC50 in the test on HTT mRNA (setting [3]) was less than 0.1 µM.

In the case of `Cc1cn2nc(-c3cc(F)c4nn(C5CCN(C6CCC6)CC5)cc4c3)cc(C)c2n1` [Compound 151, 6-[2-(1-cyclobutyl-4-piperidyl)-7-fluoro-indazol-5-yl]-2,8-dimethyl-imidazo [1,2-b] pyridazine], in the test with HTT mRNA (24 h), the AC50 was less than 0.1 µM. The IC50 in the test on HTT mRNA (24 h), in the test on HTT mRNA and in the test on Target C was less than 0.1 µM in each case.

In the case of `Fc1cc(-c2ccc3ccncc3c2)cc2cn(C3CCNCC3)nc12` [Compound 158, 7-[7-fluoro-2-(4-piperidyl)indazol-5-yl]isoquinoline], the IC50 with HTT mRNA (setting [1]), in the test with HTT mRNA (setting [2]) and in the test on Target C (setting [1]) was more than 10 µM each time. Besides, the concentration at half-maximal activity (AC50) in the test on HTT mRNA (setting [3]) was more than 10 µM.

As to `Cc1cn2nc(-c3cc(F)c4nn(C5CCN(C)C6(CC6)C5)cc4c3)cc(C)c2n1` (stereo not drawn) [Compound 174, 6-[7-fluoro-2-(4-methyl-4-azaspiro[2.5]octan-7-yl)indazol-5-yl]-2,8-dimethyl-imidazo[1,2-b]pyridazine], the IC50 in the test on HTT mRNA (setting [1]), in the test on HTT mRNA (setting [2]) and in the test with Target C (setting [1]) was less than 0.1 µM in each case. The AC50 in the test with HTT mRNA (setting [3]) is less than 0.1 µM.

For the molecule `Cc1nc2c(C)cc(-n3cc4cc(N5CCNCC5)cc(F)c4n3)cc2o1` [Compound 119, 6-(7-fluoro-5-piperazin-1-yl-indazol-2-yl)-2,4-dimethyl-1,3-benzoxazole], the IC50 in the test with HTT mRNA (setting [1]), with HTT mRNA (setting [2]) and in the test with Target C (setting [1]) was more than 10 µM throughout. Besides, the concentration at half-maximal activity (AC50) in the test on HTT mRNA (setting [3]) was more than 10 µM.

For `Cn1cc2cc(-c3ccc4nn(C5CCNCC5)cc4c3)cc(F)c2n1` [Compound 105, 7-fluoro-2-methyl-5-[2-(4-piperidyl)indazol-5-yl]indazole], the IC50 in the test on HTT mRNA (setting [1]), in the test with HTT mRNA (setting [2]) and in the test on Target C (setting [1]) was 0.1 to 1 µM each time. In addition, the AC50 in the test with HTT mRNA (setting [3]) fell in the range of 0.1 to 1 µM.

`Cc1nc2ccc(-c3cc(F)c4nn(C5CCNCC5)cc4c3)cc2s1` [Compound 134, 6-(7-fluoro-2-(piperidin-4-yl)-2H-indazol-5-yl)-2-methylbenzo[d]thiazole]: the figures for the IC50 in the test with HTT mRNA (setting [1]), with HTT mRNA (setting [2]) and in the test with Target C (setting [1]) were 1 to 10 µM, 1 to 10 µM and more than 10 µM, respectively. The half-maximal activity concentration (AC50) with HTT mRNA (setting [3]) was more than 10 µM.

As for `Cc1cn2nc(-c3cc(F)c4nn(C5CCNCC5)cc4c3)cc(C)c2n1` [Compound 122, 6-(7-fluoro-2-(piperidin-4-yl)-2H-indazol-5-yl)-2,8-dimethylimidazo [1,2-b]pyridazine hydrochloride salt], the AC50 in the test with HTT mRNA (24 h) is less than 0.1 µM. Moreover, the half-inhibitory concentration (IC50) in the test on HTT mRNA (24 h), in the test on HTT mRNA and in the test on Target C was less than 0.1 µM in each case.

For the molecule `Cc1c(O)c(-c2ccc3nn(C4CCNCC4)cc3n2)cc2cn(C)nc12` [Compound 109, 2,7-dimethyl-5-[2-(4-piperidyl)pyrazolo[4,3-b]pyridin-5-yl]indazol-6-ol], the half-maximal inhibitory concentration (IC50) with HTT mRNA (setting [1]) is less than 0.1 µM; with HTT mRNA (setting [2]), less than 0.1 µM; with Target C (setting [1]) it was 0.1 to 1 µM. Also, in the test with HTT mRNA (setting [3]), the concentration at half-maximal activity (AC50) is 0.1 to 1 µM.

As for `Fc1cc(-c2ccc3cnccc3c2)cc2cn(C3CCNCC3)nc12` [Compound 161, 6-[7-fluoro-2-(4-piperidyl)indazol-5-yl]isoquinoline], the 50% inhibitory concentration (IC50) in the test with HTT mRNA (setting [1]) was 0.1 to 1 µM; in the test with HTT mRNA (setting [2]), 0.1 to 1 µM; in the test on Target C (setting [1]), 1 to 10 µM. For the same molecule, the AC50 in the test with HTT mRNA (setting [3]) fell in the range of 1 to 10 µM.

Take `Cc1cc(-n2cc3cc(N4CCNCC4)ccc3n2)cc2cn(C)nc12` [Compound 121, 2,7-dimethyl-5-(5-piperazin-1-ylindazol-2-yl)indazole]: the half-inhibitory concentration (IC50) in the test on HTT mRNA (setting [1]), with HTT mRNA (setting [2]) and with Target C (setting [1]) was more than 10 µM each time. The AC50 in the test with HTT mRNA (setting [3]) is more than 10 µM.

In the case of `Cc1cn2nc(-c3cc(F)c4nn([C@@H]5CCNC6(CC6)C5)cc4c3)cc(C)c2n1` [Compound 173], the half-inhibitory concentration (IC50) in the test with HTT mRNA (setting [1]) was less than 0.1 µM; in the test with HTT mRNA (setting [2]) it was less than 0.1 µM; with Target C (setting [1]), 0.1 to 1 µM. Further, in the test on HTT mRNA (setting [3]), the AC50 was less than 0.1 µM.

Turning to `Cc1nc2ccc(-c3cc(F)c4nn(C5CCNCC5)cc4c3)cc2o1` [Compound 135, 6-[7-fluoro-2-(4-piperidyl)indazol-5-yl]-2-methyl-1,3-benzoxazole], the half-inhibitory concentration (IC50) in the test with HTT mRNA (setting [1]), in the test on HTT mRNA (setting [2]) and in the test on Target C (setting [1]) was 0.1 to 1 µM throughout. Further, the concentration at half-maximal activity (AC50) with HTT mRNA (setting [3]) lay within 0.1 to 1 µM.

As to `Cc1nc2c(F)cc(-c3cc(F)c4nn(C5CCNCC5)cc4c3)cc2o1` [Compound 136, 4-fluoro-6-[7-fluoro-2-(4-piperidyl)indazol-5-yl]-2-methyl-1,3-benzoxazole], the IC50 with HTT mRNA (setting [1]) is less than 0.1 µM; in the test with HTT mRNA (setting [2]), less than 0.1 µM; in the test with Target C (setting [1]), 0.1 to 1 µM. Further, the AC50 in the test on HTT mRNA (setting [3]) is less than 0.1 µM.

`Cc1cn2nc(-c3cc(F)c4nn(C5CCNCC5)cc4c3)cc2c(C)n1` [Compound 124, 2-[7-fluoro-2-(4-piperidyl)indazol-5-yl]-4,6-dimethyl-pyrazolo[1,5-a]pyrazine]: the values for the IC50 in the test on HTT mRNA (setting [1]), in the test with HTT mRNA (setting [2]) and in the test with Target C (setting [1]) were less than 0.1 µM, less than 0.1 µM and 0.1 to 1 µM, respectively. For the same molecule, in the test on HTT mRNA (setting [3]), the AC50 is less than 0.1 µM.

For the origin of these results see US20250082633A1, “COMPOUNDS AND METHODS FOR MODULATING SPLICING” (REMIX THERAPEUTICS INC., priority 2021, published 2025).
